This is an account of results in BindingDB's records for patent US12209085 (Sunshine Lake Pharma Co., 2025).

Common to all, as to experiment: Inhibitory Activity Assay
Assay [1] has as its target Proto-oncogene tyrosine-protein kinase receptor Ret [V804M] (Human, UniProt P07949, V804M).
The target of assay [2] is Proto-oncogene tyrosine-protein kinase receptor Ret (Homo sapiens, UniProt P07949).
Assay [3] addresses Proto-oncogene tyrosine-protein kinase receptor Ret [V804L] (Homo sapiens, UniProt P07949, V804L).
The target in assay [4] is Coiled-coil domain-containing protein 6/Proto-oncogene tyrosine-protein kinase receptor Ret (Homo sapiens, UniProt P07949).
Assay [5] addresses Proto-oncogene tyrosine-protein kinase receptor Ret [M918T] (Homo sapiens, UniProt P07949, M918T).

Each structure is given as a SMILES string.

Proto-oncogene tyrosine-protein kinase receptor Ret [V804M], sequence (P07949 29-1114 V804M limits assumed): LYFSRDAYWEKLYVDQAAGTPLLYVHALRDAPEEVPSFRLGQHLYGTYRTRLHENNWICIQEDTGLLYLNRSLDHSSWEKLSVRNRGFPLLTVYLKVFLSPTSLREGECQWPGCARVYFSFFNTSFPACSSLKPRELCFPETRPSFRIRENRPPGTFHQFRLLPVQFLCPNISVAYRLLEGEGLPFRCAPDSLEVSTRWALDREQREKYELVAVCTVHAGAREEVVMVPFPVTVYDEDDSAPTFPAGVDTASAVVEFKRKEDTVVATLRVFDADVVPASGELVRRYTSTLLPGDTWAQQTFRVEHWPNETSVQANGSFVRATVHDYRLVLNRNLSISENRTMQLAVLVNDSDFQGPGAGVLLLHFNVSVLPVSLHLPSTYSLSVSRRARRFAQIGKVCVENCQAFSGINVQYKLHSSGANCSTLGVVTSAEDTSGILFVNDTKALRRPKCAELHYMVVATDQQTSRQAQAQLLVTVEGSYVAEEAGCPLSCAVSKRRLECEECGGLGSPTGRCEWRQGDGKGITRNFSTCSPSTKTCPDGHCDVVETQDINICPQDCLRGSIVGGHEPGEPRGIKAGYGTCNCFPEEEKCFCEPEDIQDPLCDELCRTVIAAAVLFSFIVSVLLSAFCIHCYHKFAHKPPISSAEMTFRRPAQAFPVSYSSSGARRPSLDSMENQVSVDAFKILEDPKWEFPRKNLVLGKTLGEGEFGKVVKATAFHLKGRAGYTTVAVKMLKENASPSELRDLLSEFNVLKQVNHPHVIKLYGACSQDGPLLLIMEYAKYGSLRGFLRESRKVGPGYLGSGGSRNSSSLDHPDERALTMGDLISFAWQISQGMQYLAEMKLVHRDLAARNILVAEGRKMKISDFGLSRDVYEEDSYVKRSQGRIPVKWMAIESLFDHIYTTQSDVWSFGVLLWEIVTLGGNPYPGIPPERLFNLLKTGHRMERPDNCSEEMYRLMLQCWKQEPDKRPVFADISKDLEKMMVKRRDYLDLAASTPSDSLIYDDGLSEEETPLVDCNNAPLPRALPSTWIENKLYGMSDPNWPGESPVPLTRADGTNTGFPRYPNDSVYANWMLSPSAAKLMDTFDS
Proto-oncogene tyrosine-protein kinase receptor Ret, sequence (P07949 whole entry): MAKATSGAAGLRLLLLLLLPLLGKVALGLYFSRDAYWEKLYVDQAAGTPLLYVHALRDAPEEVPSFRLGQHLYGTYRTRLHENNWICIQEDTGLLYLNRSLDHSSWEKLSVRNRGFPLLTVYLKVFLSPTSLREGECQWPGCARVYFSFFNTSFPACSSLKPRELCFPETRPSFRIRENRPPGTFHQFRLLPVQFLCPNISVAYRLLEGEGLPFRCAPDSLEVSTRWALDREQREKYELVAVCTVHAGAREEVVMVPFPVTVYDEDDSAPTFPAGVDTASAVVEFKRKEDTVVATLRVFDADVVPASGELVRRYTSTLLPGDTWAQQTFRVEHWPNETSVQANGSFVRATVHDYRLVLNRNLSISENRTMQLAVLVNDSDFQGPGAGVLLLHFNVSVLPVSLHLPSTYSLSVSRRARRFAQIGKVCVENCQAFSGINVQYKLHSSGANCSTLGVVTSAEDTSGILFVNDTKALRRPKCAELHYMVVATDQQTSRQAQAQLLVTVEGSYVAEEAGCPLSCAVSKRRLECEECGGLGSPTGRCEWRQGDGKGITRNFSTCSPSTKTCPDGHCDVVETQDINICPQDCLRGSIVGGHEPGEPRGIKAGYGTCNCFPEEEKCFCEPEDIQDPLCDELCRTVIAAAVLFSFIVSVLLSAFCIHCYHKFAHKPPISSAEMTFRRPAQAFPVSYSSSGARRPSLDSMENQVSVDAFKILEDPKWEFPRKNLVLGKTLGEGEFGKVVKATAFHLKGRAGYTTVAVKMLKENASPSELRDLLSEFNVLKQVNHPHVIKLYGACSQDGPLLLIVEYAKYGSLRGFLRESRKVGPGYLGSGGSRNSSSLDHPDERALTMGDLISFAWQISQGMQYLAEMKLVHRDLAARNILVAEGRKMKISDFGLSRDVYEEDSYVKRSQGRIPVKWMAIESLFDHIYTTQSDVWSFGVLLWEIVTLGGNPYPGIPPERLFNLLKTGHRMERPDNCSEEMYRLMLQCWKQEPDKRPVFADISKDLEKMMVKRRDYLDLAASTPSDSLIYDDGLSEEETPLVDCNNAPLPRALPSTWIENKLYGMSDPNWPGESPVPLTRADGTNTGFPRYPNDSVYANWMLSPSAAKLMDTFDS
Proto-oncogene tyrosine-protein kinase receptor Ret [V804L], sequence (P07949 29-1114 V804L limits assumed): as the sequence (P07949 29-1114 V804M limits assumed) above, with M776L counted along it
Proto-oncogene tyrosine-protein kinase receptor Ret [M918T], sequence (P07949 29-1114 M918T limits assumed): as the sequence (P07949 29-1114 V804M limits assumed) above, with M776V, M890T counted along it
Coiled-coil domain-containing protein 6/Proto-oncogene tyrosine-protein kinase receptor Ret, sequence (P07949 whole entry, the tested form may be a part): as the sequence (P07949 whole entry) above
Coiled-coil domain-containing protein 6/Proto-oncogene tyrosine-protein kinase receptor Ret, sequence (Q16204 whole entry, further chain, the tested form may be a part): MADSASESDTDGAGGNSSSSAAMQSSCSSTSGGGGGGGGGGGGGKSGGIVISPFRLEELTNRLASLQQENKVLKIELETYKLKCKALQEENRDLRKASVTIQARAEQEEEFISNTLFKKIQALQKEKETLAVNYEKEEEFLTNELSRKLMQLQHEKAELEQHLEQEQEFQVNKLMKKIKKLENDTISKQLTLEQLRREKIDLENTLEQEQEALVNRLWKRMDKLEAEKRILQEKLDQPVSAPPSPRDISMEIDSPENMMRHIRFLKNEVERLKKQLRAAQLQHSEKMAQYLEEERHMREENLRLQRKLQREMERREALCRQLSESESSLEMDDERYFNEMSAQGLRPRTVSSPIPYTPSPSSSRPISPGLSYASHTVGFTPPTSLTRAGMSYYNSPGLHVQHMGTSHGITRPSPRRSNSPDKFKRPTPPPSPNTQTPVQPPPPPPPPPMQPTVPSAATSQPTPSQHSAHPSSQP

Broadly, the IC50 is the concentration that inhibits the measured activity by half. A lower IC50 goes with higher potency. As to `C#CC#CCN1C2CC1CN(c1ccc(-c3cc(-c4cnn(C)c4)cn4ncc(C#N)c34)cn1)C2` [US12209085, Example 276], the values for the IC50 in assay [1] and in assay [2] were 1.08 nM and 0.39 nM, respectively.

As for `C#Cc1ccc(CN2C3CC2CN(c2ccc(-c4cc(-c5cnn(C)c5)cn5ncc(C#N)c45)cn2)C3)cn1` [US12209085, Example 186], the IC50 in assay [1] came out at 0.76 nM; in assay [2], 0.17 nM.

Consider `C#Cc1ncc(CN2C3CC2CN(c2ccc(-c4cc(-c5cnn(C)c5)cn5ncc(C#N)c45)cn2)C3)cc1F` [US12209085, Example 227], for which the IC50 came out at 0.3 nM in assay [1] and 0.13 nM in assay [2].

Regarding `C#Cc1cccc(C(=O)NC2CCN(c3ccc(-c4cc(-c5cnn(C)c5)cn5ncc(C#N)c45)cn3)CC2)c1` [US12209085, Example 268], the IC50 was determined as 30.8 nM in assay [1]; 2.69 nM in assay [2]; 2.35 nM in assay [3]; 3.16 nM in assay [4]; 1.92 nM in assay [5].
